Experimental data reported in US4182897A, “Amino- or guanidino-phenylpropionic acid derivatives” (Torii & Co., Ltd., priority 1977, dated 1980).
Structures can show the parent of a compound that is named as a salt. Where two headings read alike, the source gives them in different places.

What was measured:
Trypsin = biological target: T1, Trypsin (Bos taurus, UniProt P00760); assay: Inhibitory effect on ester-hydrolyzing activity of trypsin (TAMe substrate); type: biochemical; conditions: for inhibition at 1000 µM: read-out: percent inhibition at 10^-3 M (trypsin); for IC50 / inhibitory action on trypsin: in vitro; for IC50: tosylarginine methyl ester hydrolysis, read-out: ID50 (trypsin)
T1 sequence (P00760 24-246): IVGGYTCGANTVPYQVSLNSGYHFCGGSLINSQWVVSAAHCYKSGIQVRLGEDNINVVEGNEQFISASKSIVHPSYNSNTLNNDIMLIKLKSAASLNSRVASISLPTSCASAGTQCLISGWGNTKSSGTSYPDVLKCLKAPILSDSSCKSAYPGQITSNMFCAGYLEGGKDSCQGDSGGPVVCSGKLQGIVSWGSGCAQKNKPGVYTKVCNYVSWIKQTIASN
Experimental: (A) Determination of Enzyme-inhibitory Activity: The enzyme-inhibitory activities in vitro of the compounds of this invention were measured by the following procedure according to the method of M. Muramatsu et al. [[…]. Makino, Y. Hayashi and S. Fujii: J. […] Then, 10 μmoles of the substrate, TAMe (tosylarginine methyl ester), was added, and incubation was performed at 37° C. for 30 minutes. After the incubation, 1.5 ml of 2 M alkaline hydroxylamine was added and thoroughly mixed, and allowed to stand at room temperature for 15 minutes.

Bovine Thrombin = Bovine Thrombin (Bos taurus, UniProt P00735); assay: Inhibitory effect on ester-hydrolyzing activity of bovine thrombin (TAMe substrate); type: biochemical; conditions: for inhibition at 1000 µM: read-out: percent inhibition at 10^-3 M (thrombin); for inhibitory action on thrombin: in vitro
Experimental: (4) Inhibitory Effect on Ester-Hydrolyzing Activity of Bovine Thrombin
It was measured by using 0.4 ml of bovine thrombin […], 0.02 M sodium phosphate buffer solution (pH 7.4) and TAMe as substrate following the method described in (1).

Human Cl Esterase = biological target: T2, Human Cl Esterase (Homo sapiens, UniProt P09871); assay: Inhibitory effect on ester-hydrolyzing activity of human Cl esterase (ATEe substrate); type: biochemical; conditions: for inhibition at 1000 µM: read-out: percent inhibition at 10^-3 M (Cl esterase); for inhibitory action on Cl esterase / IC50: in vitro; for IC50: acetyltyrosine ethyl ester hydrolysis, read-out: ID50 (Cl esterase)
T2 sequence (P09871 438-688 limits assumed): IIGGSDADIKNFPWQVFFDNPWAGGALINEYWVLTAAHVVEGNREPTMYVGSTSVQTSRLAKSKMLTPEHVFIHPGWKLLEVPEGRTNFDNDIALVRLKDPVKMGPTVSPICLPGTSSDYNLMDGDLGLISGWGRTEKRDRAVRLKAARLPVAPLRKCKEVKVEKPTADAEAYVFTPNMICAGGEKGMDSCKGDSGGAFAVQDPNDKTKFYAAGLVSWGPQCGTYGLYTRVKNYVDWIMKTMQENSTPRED
T2 sequence (P09871 16-437 partner limits assumed): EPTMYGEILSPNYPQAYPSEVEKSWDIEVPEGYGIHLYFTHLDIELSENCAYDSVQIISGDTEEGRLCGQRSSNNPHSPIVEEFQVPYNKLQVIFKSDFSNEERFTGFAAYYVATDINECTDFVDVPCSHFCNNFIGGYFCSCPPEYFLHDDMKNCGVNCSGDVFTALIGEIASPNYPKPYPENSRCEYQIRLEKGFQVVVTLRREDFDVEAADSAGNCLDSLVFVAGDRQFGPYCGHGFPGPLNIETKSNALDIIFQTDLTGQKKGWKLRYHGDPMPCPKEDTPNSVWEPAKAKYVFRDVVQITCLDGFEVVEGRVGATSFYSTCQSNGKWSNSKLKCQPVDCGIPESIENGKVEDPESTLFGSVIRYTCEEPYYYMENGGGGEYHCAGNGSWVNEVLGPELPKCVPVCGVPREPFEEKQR
Experimental: It was measured by using 0.1 ml of Cl esterase, 0.1 ml of 0.02 M sodium phosphate buffer solution (pH 7.4) and 10 μmoles of ATEe (acetyltyrosine ethyl ester) as substrate following the method described in (1).

[1] = system: collagen induced platelet aggregation of rabbit PRP; assay: Inhibition of collagen induced platelet aggregation of rabbit PRP; type: cell-based; conditions: Oryctolagus cuniculus; for inhibition at 10 µg/mL: 10.0 μg/ml; for inhibition at 2.5 µg/mL: 2.5 μg/ml; for inhibition at 5 µg/mL: 5.0 μg/ml; for inhibition at 1 µg/mL: 1.0 μg/ml
Experimental: (B) Determination of Inhibitory Activity on Collagen Induced Platelet Aggregation:
According to the method of Born et al. [Born, G. V. R.: J. Physiol., 168. 178 (1963)], the platelet aggregation inhibition (%) was determined at various concentrations of compounds by the following procedure:
Rabbit PRP (platelet rich plasma), 0.9 ml, obtained from sodium citrate-added blood, was taken into a polyethylene tube and incubated at 37° C. for 1 minute, and then 10 μl of a compound solution or physiological saline as control, was added.
Subsequently, 0.1 ml of collagen solution was added, and change in absorbance of PRP, resulting from the progress of platelet aggregation, was determined by means of platelet aggregation meter and recorded.
Percent inhibition was calculated according to the following equation: [formula]

Human Plasma Kallikrein = Human Plasma Kallikrein (Homo sapiens, UniProt P03952); assay: Inhibitory effect on ester-hydrolyzing activity of human plasma kallikrein (TAMe substrate); type: biochemical; conditions: for inhibition at 1000 µM: read-out: percent inhibition at 10^-3 M (kallikrein); for inhibitory action on kallikrein: in vitro
Chain of Human Plasma Kallikrein (P03952 391-638 limits assumed): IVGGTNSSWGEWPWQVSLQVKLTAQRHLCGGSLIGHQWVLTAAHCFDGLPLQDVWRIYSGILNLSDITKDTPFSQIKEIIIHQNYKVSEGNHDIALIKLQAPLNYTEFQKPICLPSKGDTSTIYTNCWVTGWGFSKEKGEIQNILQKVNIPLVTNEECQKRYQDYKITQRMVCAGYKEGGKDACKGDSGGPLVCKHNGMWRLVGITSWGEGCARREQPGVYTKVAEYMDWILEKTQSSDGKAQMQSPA
Chain of Human Plasma Kallikrein (P03952 20-390 partner limits assumed): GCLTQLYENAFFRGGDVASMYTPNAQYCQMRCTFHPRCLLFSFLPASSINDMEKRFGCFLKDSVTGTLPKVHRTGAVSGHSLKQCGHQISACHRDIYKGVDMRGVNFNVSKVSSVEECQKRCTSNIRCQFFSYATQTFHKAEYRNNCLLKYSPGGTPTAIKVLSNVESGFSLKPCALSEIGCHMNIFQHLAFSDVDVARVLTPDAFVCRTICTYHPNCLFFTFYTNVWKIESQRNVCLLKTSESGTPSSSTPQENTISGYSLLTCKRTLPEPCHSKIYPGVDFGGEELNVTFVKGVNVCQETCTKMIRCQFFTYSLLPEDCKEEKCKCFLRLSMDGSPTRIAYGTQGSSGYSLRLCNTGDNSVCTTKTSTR
Experimental: (A) Determination of Enzyme-inhibitory Activity: The enzyme-inhibitory activities in vitro of the compounds of this invention were measured by the following procedure according to the method of M. Muramatsu et al. [[…]. Makino, Y. Hayashi and S. Fujii: J.

Human Plasmin = Human Plasmin (Homo sapiens, UniProt P00747); assay: Inhibitory effect on ester-hydrolyzing activity of human plasmin (TAMe substrate); type: biochemical; conditions: for inhibition at 1000 µM: read-out: percent inhibition at 10^-3 M (plasmin); for inhibitory action on plasmin: in vitro
Chain of Human Plasmin (P00747 581-810 limits assumed): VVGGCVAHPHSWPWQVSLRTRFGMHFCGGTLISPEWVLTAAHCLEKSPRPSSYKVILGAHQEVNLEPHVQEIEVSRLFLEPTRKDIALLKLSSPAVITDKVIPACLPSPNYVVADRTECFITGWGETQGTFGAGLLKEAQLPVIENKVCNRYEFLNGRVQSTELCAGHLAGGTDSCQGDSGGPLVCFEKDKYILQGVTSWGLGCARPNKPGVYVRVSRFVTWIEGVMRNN
Chain of Human Plasmin (P00747 97-580 partner limits assumed): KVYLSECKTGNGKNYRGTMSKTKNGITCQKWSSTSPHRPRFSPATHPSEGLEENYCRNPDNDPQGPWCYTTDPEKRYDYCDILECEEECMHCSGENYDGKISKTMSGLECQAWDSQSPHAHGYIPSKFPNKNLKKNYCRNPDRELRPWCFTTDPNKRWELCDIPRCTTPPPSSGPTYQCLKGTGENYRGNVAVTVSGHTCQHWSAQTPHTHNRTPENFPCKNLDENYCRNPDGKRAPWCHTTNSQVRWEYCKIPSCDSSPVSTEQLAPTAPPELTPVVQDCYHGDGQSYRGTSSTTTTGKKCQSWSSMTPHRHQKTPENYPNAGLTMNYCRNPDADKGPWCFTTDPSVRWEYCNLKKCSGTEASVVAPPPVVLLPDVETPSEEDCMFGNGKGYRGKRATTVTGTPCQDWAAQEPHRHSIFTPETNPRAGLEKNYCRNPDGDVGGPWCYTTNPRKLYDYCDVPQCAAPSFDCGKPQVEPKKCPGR
Experimental: (A) Determination of Enzyme-inhibitory Activity: The enzyme-inhibitory activities in vitro of the compounds of this invention were measured by the following procedure according to the method of M. Muramatsu et al. [[…]. Makino, Y. Hayashi and S. Fujii: J. […] (2) Inhibitory Effect on Ester-hydrolyzing Activity of Human Plasmin It was measured by using 0.1 ml of plasmin (generated by activation of plasminogen with streptokinase) and TAMe as substrate following the method described in (1).

Structure (SMILES)	inhibition at 1000 µM (Trypsin) [%]	inhibition at 1000 µM (Human Cl Esterase) [%]	inhibition at 10 µg/mL [1] [%]	inhibition at 1000 µM (Human Plasma Kallikrein) [%]	inhibition at 1000 µM (Human Plasmin) [%]	IC50 (Trypsin) [µM]	inhibition at 1000 µM (Bovine Thrombin) [%]	IC50 (Human Cl Esterase) [µM]	further results
Cc1ccc(OC(=O)CCc2ccc(N)cc2)cc1 [Compound No. 1, p-Methylphenyl β-(p-aminophenyl)-propionate hydrochloride]	< 10	< 10	42	< 10	< 10				IC50 (Bovine Thrombin): 880 µM
CC(Cc1ccc(N)cc1)C(=O)Oc1ccc(Cl)cc1 (stereo not drawn) [Compound No. 2, p-Chlorophenyl α-methyl-β-(p-aminophenyl)-propionate hydrochloride]						330			
Cl.Nc1ccc(CCC(=O)Oc2ccccc2)cc1 [Compound No. 3, Phenyl β-(p-aminophenyl)-propionate hydrochloride]	< 10	< 10		< 10	< 10				inhibitory action on trypsin (Trypsin): no inhibitory action; IC50 (Bovine Thrombin): 290 µM; inhibitory action on Cl esterase (Human Cl Esterase): no inhibitory action; inhibitory action on kallikrein (Human Plasma Kallikrein): no inhibitory action; inhibitory action on plasmin (Human Plasmin): no inhibitory action
CCC(Cc1cccc(N)c1)C(=O)Oc1ccc(OC)cc1 (stereo not drawn) [Compound No. 4, p-Methoxyphenyl α-ethyl-β-(m-aminophenyl)-propionate hydrochloride]		14.8		< 10	< 10		< 10		IC50 (Trypsin; 30 min): 400 µM
CCC(Cc1cccc(N)c1)C(=O)Oc1cccc2ccccc12 (stereo not drawn) [Compound No. 7, 1-naphthyl α-ethyl-β-(m-aminophenyl)-propionate]		11.7	100		< 10	10	< 10		inhibition at 2.5 µg/mL [1]: 37%; inhibition at 5 µg/mL [1]: 84%
CC(Cc1cccc(NC(=N)N)c1)C(=O)Oc1ccc(Cl)cc1 (stereo not drawn) [Compound No. 44, p-Chlorophenyl α-methyl-β-(m-guanidinophenyl)-propionate carbonate]								250	
Cc1ccc(OC(=O)C(C)Cc2ccc(NC(=N)N)cc2)cc1 (stereo not drawn) [Compound No. 45, p-Methylphenyl α-methyl-β-(p-guanidinophenyl)-propionate hydrochloride]	21.4			< 10	< 10		< 10	780	
CC(Cc1cccc(NC(=N)N)c1)C(=O)Oc1ccccc1.O=C(O)O (stereo not drawn) [Compound No. 46, Phenyl α-methyl-β-(m-guanidinophenyl)-propionate carbonate]	12.2			12.9	< 10		< 10	310	inhibitory action on trypsin (Trypsin): no inhibitory action; inhibitory action on thrombin (Bovine Thrombin): no inhibitory action; inhibitory action on kallikrein (Human Plasma Kallikrein): no inhibitory action; inhibitory action on plasmin (Human Plasmin): no inhibitory action
CCOC(=O)c1ccc(OC(=O)CCc2ccc(NC(=N)N)cc2)cc1.Cl [Compound No. 47, p-Ethoxycarbonylphenyl β-(p-guanidinophenyl)-propionate hydrochloride]		< 10		36	< 10	78	12.3		inhibitory action on thrombin (Bovine Thrombin): no inhibitory action; inhibitory action on Cl esterase (Human Cl Esterase): no inhibitory action; inhibitory action on kallikrein (Human Plasma Kallikrein): no inhibitory action; inhibitory action on plasmin (Human Plasmin): no inhibitory action
CC(=O)Oc1ccccc1C(=O)O [aspirin, reference compound]			100						inhibition at 5 µg/mL [1]: 78%
CC(Cc1cccc(N)c1)C(=O)Oc1ccc(Cl)cc1 (stereo not drawn) [compound 5, p-chlorophenyl α-methyl-β-(m-aminophenyl)-propionate]		< 10		< 10	< 10	10	< 10		
COc1ccc(OC(=O)CCc2ccc(N)cc2)cc1 [compound 32, p-methoxyphenyl β-(p-aminophenyl)-propionate]	38.8	< 10	100	< 10	< 10				IC50 (Bovine Thrombin): 170 µM; inhibition at 2.5 µg/mL [1]: 41%; inhibition at 5 µg/mL [1]: 100%
CCCCOc1ccc(OC(=O)CCc2ccc(N)cc2)cc1 [compound 33, p-n-butoxyphenyl β-(p-aminophenyl)-propionate]		< 10	100	< 10	< 10	890	19.9		inhibition at 0.5 µg/mL ([1]; 0.5 μg/ml): 46%; inhibition at 1 µg/mL [1]: 100%; inhibition at 2.5 µg/mL [1]: 100%; inhibition at 5 µg/mL [1]: 100%
CCOC(=O)c1ccc(OC(=O)C(CC)Cc2ccc(N)cc2)cc1 (stereo not drawn) [compound 36, p-ethoxycarbonylphenyl α-ethyl-β-(p-aminophenyl)-propionate]		< 10		15.9	< 10	170	25.3		
CC(Cc1cccc(NC(=N)N)c1)C(=O)Oc1cccc2ccccc12 (stereo not drawn) [compound 50, 1-naphthyl α-methyl-β-(m-guanidinophenyl)-propionate]			100		42	57	< 10	140	inhibition at 1 µg/mL [1]: 4%; inhibition at 2.5 µg/mL [1]: 100%; inhibition at 5 µg/mL [1]: 100%
CC(Cc1ccc(NC(=N)N)cc1)C(=O)Oc1ccc(Cl)cc1 (stereo not drawn) [compound 52, p-chlorophenyl α-methyl-β-(p-guanidinophenyl)-propionate]				38.4	18.8	490	< 10	56	
CCC(Cc1cccc(NC(=N)N)c1)C(=O)Oc1ccccc1 (stereo not drawn) [compound 65, phenyl α-ethyl-β-(m-guanidinophenyl)-propionate]	35			15.6	< 10		16.8	70	
CCCCOc1ccc(OC(=O)CCc2ccc(NC(=N)N)cc2)cc1 [compound 71, p-n-butoxyphenyl β-(p-guanidinophenyl)-propionate]		< 10		1.5	20	660	< 10		
